The values that follow come from patent US20250171430A1, “PYRAZOLYL COMPOUNDS AS KV7 CHANNEL ACTIVATORS” (Biohaven Therapeutics Ltd., priority 2022, published 2025).

This test addresses T1, Kv7.2/7.3 (Homo sapiens, UniProt O43525+O43526).
T1 construct: Kv7.2 tetracycline-induced, Kv7.3 constitutive
The test is described as follows: Kv7.2/7.3 Activation Assay (Thallium Flux Assay). The test is classed as cell-based. As to conditions: hKV7.2/7.3 cell line; test compound at single concentration of 10 μM; fluorescence at 90 sec normalized to positive control (retigabine, 30 μM). The essentials:
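Human Kv7.2/7.3 cells with Kv7.2 induced overnight by 10 ng/mL tetracycline were loaded with FluxOR II Green for 1 h at 37 °C. Compounds were tested at 10 μM in 0.1% DMSO/extracellular solution, pH 7.4. Thallium/potassium stimulus was added after a 15 s baseline, and 90 s fluorescence (ex 475/em 530 nm) was normalized to 30 μM retigabine.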
As for `O=C(Nc1nn(CC(F)(F)F)c(-c2ccc(F)cc2)c1C1CCC1)C1(C(F)(F)F)CC1` [Compound 169, N-(4-cyclobutyl-5-(4-fluorophenyl)-1-(2,2,2-trifluoroethyl)-1H-pyrazol-3-yl)-1-(trifluoromethyl)cyclopropane-1-carboxamide], the “Kv7.2/7.3 Activity” value was “+ (“+” Moderate Activity 0.15-0.7)”.

Take `Cn1nc(NC(=O)[C@@H]2CC2(F)F)c(C2(C)CCC2)c1-c1ccc(F)cc1` [Compound 140, (S)-2,2-difluoro-N-(5-(4-fluorophenyl)-1-methyl-4-(1-methylcyclobutyl)-1H-pyrazol-3-yl)cyclopropane-1-carboxamide]: the “Kv7.2/7.3 Activity” value was “+ (“+” Moderate Activity 0.15-0.7)”.

Take `Cn1nc(NC(=O)CC2COC2)c(C2CCC2)c1-c1cnc(C(F)(F)F)s1` [Compound 86, N-(4-cyclobutyl-1-methyl-5-(2-(trifluoromethyl)thiazol-5-yl)-1H-pyrazol-3-yl)-2-(oxetan-3-yl)acetamide]: the “Kv7.2/7.3 Activity” value was “− (“−” No Activity < 0.15)”.

As to `Cn1nc(NC(=O)[C@@H]2CC2(F)F)c(C2CCC2)c1-c1ccc(Cl)cc1` [Compound 223, (S)-N-(5-(4-chlorophenyl)-4-cyclobutyl-1-methyl-1H-pyrazol-3-yl)-2,2-difluorocyclopropane-1-carboxamide], the “Kv7.2/7.3 Activity” value is “+ (“+” Moderate Activity 0.15-0.7)”.

`Cn1nc(NC(=O)CC(C)(O)c2ccc(F)cc2F)c(C2CCC2)c1-c1ccc(OC(F)(F)F)cc1` (stereo not shown) [Compound 175, N-(4-cyclobutyl-1-methyl-5-(4-(trifluoromethoxy)phenyl)-1H-pyrazol-3-yl)-3-(2,4-difluorophenyl)-3-hydroxybutanamide]: the “Kv7.2/7.3 Activity” value is listed as “++ (“++” High Activity ≥ 0.7)”.

Regarding `Cn1nc(NC(=O)C[C@@H]2CC(F)(F)C2(F)F)c(CC(F)(F)F)c1-c1ccccc1` [Compound 37, (R)-N-(1-methyl-5-phenyl-4-(2,2,2-trifluoroethyl)-1H-pyrazol-3-yl)-2-(2,2,3,3-tetrafluorocyclobutyl)acetamide], the “Kv7.2/7.3 Activity” value is listed as “++ (“++” High Activity ≥ 0.7)”.

Consider `O=C(C[C@@H]1CC(F)(F)C1(F)F)Nc1nn(CCO)c(Cc2ccccc2)c1C1CCC1` [Compound 65, (R)-N-(5-benzyl-4-cyclobutyl-1-(2-hydroxyethyl)-1H-pyrazol-3-yl)-2-(2,2,3,3-tetrafluorocyclobutyl)acetamide], for which the “Kv7.2/7.3 Activity” value is listed as “++ (“++” High Activity ≥ 0.7)”.

Turning to `Cn1nc(NC(=O)[C@H]2CC2(F)F)c(C2(C)CCC2)c1-c1ccc(F)cc1` [Compound 139, (R)-2,2-difluoro-N-(5-(4-fluorophenyl)-1-methyl-4-(1-methylcyclobutyl)-1H-pyrazol-3-yl)cyclopropane-1-carboxamide], the “Kv7.2/7.3 Activity” value is “++ (“++” High Activity ≥ 0.7)”.

For the compound `C[C@H](C(=O)Nc1nn(C)c(-c2cc(F)cc(F)c2)c1C1CCC1)C1CC(F)(F)C1` [Compound 268, (S)-N-(4-cyclobutyl-5-(3,5-difluorophenyl)-1-methyl-1H-pyrazol-3-yl)-2-(3,3-difluorocyclobutyl)propanamide], the “Kv7.2/7.3 Activity” value is “+ (“+” Moderate Activity 0.15-0.7)”.

For the compound `Cn1nc(NC(=O)C[C@@H]2CC(F)(F)C2(F)F)c(C2CCC2)c1Cc1ccc(OC(F)(F)F)cc1` [Compound 63, (R)-N-(4-cyclobutyl-1-methyl-5-(4-(trifluoromethoxy)benzyl)-1H-pyrazol-3-yl)-2-(2,2,3,3-tetrafluorocyclobutyl)acetamide], the “Kv7.2/7.3 Activity” value is listed as “++ (“++” High Activity ≥ 0.7)”.

On to `Cn1nc(NC(=O)NCC(F)F)c(C2CCC2)c1C1CC(F)(F)C1` [Compound 296, 1-(4-cyclobutyl-5-(3,3-difluorocyclobutyl)-1-methyl-1H-pyrazol-3-yl)-3-(2,2-difluoroethyl)urea], for which the “Kv7.2/7.3 Activity” value was “++ (“++” High Activity ≥ 0.7)”.

Take `Cn1nc(NC(=O)CC(C)(C)C(F)(F)F)c(C2CCC2)c1C1CCCCC1` [Compound 68, N-(4-cyclobutyl-5-cyclohexyl-1-methyl-1H-pyrazol-3-yl)-4,4,4-trifluoro-3,3-dimethylbutanamide]: the “Kv7.2/7.3 Activity” value is “++ (“++” High Activity ≥ 0.7)”.

Take `Cn1nc(NC(=O)C2(C(F)(F)F)CC2)c(C2CCC2)c1-c1ccc(Cl)s1` [Compound 153, N-(5-(5-chlorothiophen-2-yl)-4-cyclobutyl-1-methyl-1H-pyrazol-3-yl)-1-(trifluoromethyl)cyclopropane-1-carboxamide]: the “Kv7.2/7.3 Activity” value is given as “++ (“++” High Activity ≥ 0.7)”.

For the compound `Cn1nc(NC(=O)C2CC(F)(F)C2)c(C2CCC2)c1-c1ccc(Cl)cc1` [Compound 220, N-(5-(4-chlorophenyl)-4-cyclobutyl-1-methyl-1H-pyrazol-3-yl)-3,3-difluorocyclobutane-1-carboxamide], the “Kv7.2/7.3 Activity” value is listed as “++ (“++” High Activity ≥ 0.7)”.

Regarding `Cn1nc(NC(=O)C2CSC2)c(C2CCC2)c1-c1cc(F)c(F)c(F)c1` [Compound 263, N-(4-cyclobutyl-1-methyl-5-(3,4,5-trifluorophenyl)-1H-pyrazol-3-yl)thietane-3-carboxamide], the “Kv7.2/7.3 Activity” value is listed as “++ (“++” High Activity ≥ 0.7)”.

As for `Cn1nc(NC(=O)[C@H]2C[C@@H](C)C2)c(C2CCC2)c1-c1ccc(OC(F)(F)F)cc1` [Compound 183, (1s,3s)-N-(4-cyclobutyl-1-methyl-5-(4-(trifluoromethoxy)phenyl)-1H-pyrazol-3-yl)-3-methylcyclobutane-1-carboxamide], the “Kv7.2/7.3 Activity” value is listed as “++ (“++” High Activity ≥ 0.7)”.

Take `Cn1nc(NC(=O)C[C@H]2CC(F)(F)C2(F)F)c(C2CCC2)c1-c1noc2ccccc12` [Compound 19, (S)-N-(5-(benzo[d]isoxazol-3-yl)-4-cyclobutyl-1-methyl-1H-pyrazol-3-yl)-2-(2,2,3,3-tetrafluorocyclobutyl)acetamide]: the “Kv7.2/7.3 Activity” value is recorded as “++ (“++” High Activity ≥ 0.7)”.

As to `Cn1nc(NC(=O)NC2CC(F)(F)C2)c(C2CCC2)c1-c1cc(F)cc(F)c1` [Compound 270, 1-(4-cyclobutyl-5-(3,5-difluorophenyl)-1-methyl-1H-pyrazol-3-yl)-3-(3,3-difluorocyclobutyl)urea], the “Kv7.2/7.3 Activity” value is “++ (“++” High Activity ≥ 0.7)”.

With `Cn1nc(NC(=O)C2CC(F)(F)C2)c(C2CCC2)c1-c1cc(F)c(F)c(F)c1` [Compound 261, N-(4-cyclobutyl-1-methyl-5-(3,4,5-trifluorophenyl)-1H-pyrazol-3-yl)-3,3-difluorocyclobutane-1-carboxamide], the “Kv7.2/7.3 Activity” value is “++ (“++” High Activity ≥ 0.7)”.

In the case of `Cn1nc(NC(=O)C2(C3CC3)CC2)c(C2CCC2)c1-c1ccc(F)cc1` [Compound 137, N-(4-cyclobutyl-5-(4-fluorophenyl)-1-methyl-1H-pyrazol-3-yl)-[1,1'-bi(cyclopropane)]-1-carboxamide], the “Kv7.2/7.3 Activity” value is “++ (“++” High Activity ≥ 0.7)”.

Take `Cn1nc(NC(=O)OC2CC(F)(F)C2)c(C2CCC2)c1-c1ccc(C(F)(F)F)cc1` [Compound 279, 3,3-difluorocyclobutyl (4-cyclobutyl-1-methyl-5-(4-(trifluoromethyl)phenyl)-1H-pyrazol-3-yl)carbamate]: the “Kv7.2/7.3 Activity” value was “+ (“+” Moderate Activity 0.15-0.7)”.

For the compound `Cn1nc(NC(=O)CC2(C(F)(F)F)CC2)c(C2CC(F)(F)C2)c1-c1ccc(OC(F)(F)F)cc1` [Compound 42, N-(4-(3,3-difluorocyclobutyl)-1-methyl-5-(4-(trifluoromethoxy)phenyl)-1H-pyrazol-3-yl)-2-(1-(trifluoromethyl)cyclopropyl)acetamide], the “Kv7.2/7.3 Activity” value is recorded as “+ (“+” Moderate Activity 0.15-0.7)”.

With `Cn1nc(NC(=O)C2(C(F)(F)F)CC2)c(C2CCC2)c1-c1ccc(OC(F)(F)F)cc1` [Compound 150, N-(4-cyclobutyl-1-methyl-5-(4-(trifluoromethoxy)phenyl)-1H-pyrazol-3-yl)-1-(trifluoromethyl)cyclopropane-1-carboxamide], the “Kv7.2/7.3 Activity” value is recorded as “+ (“+” Moderate Activity 0.15-0.7)”.

For the compound `Cn1nc(NC(=O)C[C@H]2CC(F)(F)C2(F)F)c(C2CCC2)c1-c1cnc(C(F)(F)F)s1` [Compound 60, (S)-N-(4-cyclobutyl-1-methyl-5-(2-(trifluoromethyl)thiazol-5-yl)-1H-pyrazol-3-yl)-2-(2,2,3,3-tetrafluorocyclobutyl)acetamide], the “Kv7.2/7.3 Activity” value is reported as “+ (“+” Moderate Activity 0.15-0.7)”.

Regarding `Cn1nc(NC(=O)C[C@@H]2CC(F)(F)C2(F)F)c(C2CCC2)c1-c1cc(F)cc(F)c1` [Compound 256, (R)-N-(4-cyclobutyl-5-(3,5-difluorophenyl)-1-methyl-1H-pyrazol-3-yl)-2-(2,2,3,3-tetrafluorocyclobutyl)acetamide], the “Kv7.2/7.3 Activity” value is recorded as “++ (“++” High Activity ≥ 0.7)”.

For the compound `Cn1nc(NC(=O)CC(C(F)(F)F)C(F)(F)F)c(C2CCC2)c1-c1ccc(OC(F)(F)F)cc1` [Compound 180, N-(4-cyclobutyl-1-methyl-5-(4-(trifluoromethoxy)phenyl)-1H-pyrazol-3-yl)-4,4,4-trifluoro-3-(trifluoromethyl)butanamide], the “Kv7.2/7.3 Activity” value is “++ (“++” High Activity ≥ 0.7)”.

On to `Cn1nc(NC(=O)C2CC3(C2)CC3(F)F)c(C2CCC2)c1-c1ccc(OC(F)(F)F)cc1` (stereo not shown) [Compound 186, N-(4-cyclobutyl-1-methyl-5-(4-(trifluoromethoxy)phenyl)-1H-pyrazol-3-yl)-1,1-difluorospiro[2.3]hexane-5-carboxamide], for which the “Kv7.2/7.3 Activity” value is “++ (“++” High Activity ≥ 0.7)”.

Take `Cn1nc(NC(=O)C[C@](C)(O)C2CC(F)(F)C2)c(C2CCC2)c1-c1ccc(F)cc1` [Compound 116, (S)-N-(4-cyclobutyl-5-(4-fluorophenyl)-1-methyl-1H-pyrazol-3-yl)-3-(3,3-difluorocyclobutyl)-3-hydroxybutanamide]: the “Kv7.2/7.3 Activity” value is “+ (“+” Moderate Activity 0.15-0.7)”.
